**Q.** Which melting point does the source give for `Brc1cc(Br)c2c(c1)CCN2` here?
**A.** 164 to 165 °C

**Q.** Which melting point does the source give for `COc1cc(CF)nc(N)n1` here?
**A.** 119 to 121 °C

**Q.** For `CC(C)CCc1ccc(C#N)c(=O)[nH]1`, which melting point is on record?
**A.** 110 to 112 °C

**Q.** With `CCNc1cc(O)c(C(=O)c2ccccc2C(=O)O)cc1C` as the compound, how does the melting point read?
**A.** 200 to 202 °C

**Q.** With `Fc1c(F)c(F)c(-c2c3ccccc3c(-c3c(F)c(F)c(F)c(F)c3F)c3ccccc23)c(F)c1F` as the compound, how does the melting point read?
**A.** 337 to 338 °C

**Q.** With `CON(c1ccc([N+](=O)[O-])cc1F)S(=O)(=O)c1ccc(Cl)c(C(F)(F)F)c1` as the compound, how does the melting point read?
**A.** 104 to 106 °C

**Q.** For `O=S(=O)(c1ccccc1)N1CCCC1c1ccc(C(F)(F)F)cc1` (racemic), which melting point is on record?
**A.** 95 °C

**Q.** For `CC1(C)OC(C(F)(F)F)Nc2ccc(-c3cccc(Cl)c3)cc21` (stereo not drawn), which melting point is on record?
**A.** 108 to 109 °C

**Q.** Which melting point does the source give for `Cn1cnnc1C(c1ccc(I)cc1)c1cc2c3c(c1)c(-c1cccc(Cl)c1)cc(=O)n3CC2` (stereo not drawn) here?
**A.** 194 °C

**Q.** With `Cc1nn(C)c2c1N(C(=O)CN(C(C)C)C(C)C)c1ccccc1NC2=O` as the compound, how does the melting point read?
**A.** 154 to 156 °C

**Q.** Which melting point does the source give for `CC(C)(C)OC(=O)NCC(C(=O)OCc1ccccc1)c1ccccc1` (stereo not drawn) here?
**A.** 58 to 59 °C

**Q.** With `Cc1ccccc1C(=O)N(CN(C)C)c1ccc(C(=O)N2Cc3ccccc3Cc3ccccc32)cc1` as the compound, how does the melting point read?
**A.** 131 to 133 °C

**Q.** For `O=c1oc(-c2ccccc2)cc(O)c1SCc1ccc2c(c1)OCO2`, which melting point is on record?
**A.** 162 to 164 °C

**Q.** With `CC(=O)On1c(=O)c(=O)[nH]c2cc(C(F)(F)F)c(C#N)cc21` as the compound, how does the melting point read?
**A.** 230 °C

**Q.** With `Cc1c(/C=C/C(=O)c2c[nH]c3ccccc23)ncn1C(c1ccccc1)(c1ccccc1)c1ccccc1` as the compound, how does the melting point read?
**A.** 240 to 242 °C

**Q.** For `C[C@H]([C@](O)(Cn1cncn1)c1ccc(F)cc1F)S(=O)(=O)N1CCN(c2ccc(C(F)(F)F)cc2)CC1`, which melting point is on record?
**A.** 158 to 159 °C

**Q.** With `CCn1c(=O)c2[nH]c(/C=C/c3ccc(F)cc3)nc2n(CC)c1=O` as the compound, how does the melting point read?
**A.** > 270 °C

**Q.** With `CCOC(=O)COc1ccc([N+](=O)[O-])cc1C1C(C(=O)OCC)=C(C)NC(C)=C1C(=O)OCC` as the compound, how does the melting point read?
**A.** 175 °C

**Q.** With `CCC[C@@H](CC1(C(=O)Nc2nnc(CC)s2)CCCC1)C(=O)O` as the compound, how does the melting point read?
**A.** 130 to 136 °C

**Q.** With `CCOC(=O)/C=C/c1cnc(-c2ccc(OCc3ccccc3)c(C34CC5CC(CC(C5)C3)C4)c2)nc1` as the compound, how does the melting point read?
**A.** 164 to 167 °C

**Q.** With `CCCc1cnc(N2CCC(c3ccc(COc4ccc(C#N)c(F)c4)nc3)CC2)nc1` as the compound, how does the melting point read?
**A.** 118 to 120 °C

**Q.** For `C/C(=C\c1ccc(C(=O)Nc2nnn[nH]2)cc1)c1ccc2c(c1)C(C)(C)CCO2`, which melting point is on record?
**A.** > 250 °C

**Q.** For `Cn1ncc(C(=O)N2CCOCC2)c1C(=O)Nc1ccn2nc(N3CCCC3)nc2c1`, which melting point is on record?
**A.** 194 to 197 °C

**Q.** With `CSc1nc(N)c2ncn(COCCO)c2n1` as the compound, how does the melting point read?
**A.** 174 to 176 °C

**Q.** Which melting point does the source give for `COc1cn(-c2ccc(N3CCC3=O)cc2F)nc(-c2ccnn2-c2ccccc2)c1=O` here?
**A.** 189 to 194 °C

**Q.** Which melting point does the source give for `Cc1cc2c(cc1Br)C(C)(C)C=CC2(C)C` here?
**A.** 103 to 105 °C

**Q.** Which melting point does the source give for `NC(=S)NCc1cn(-c2ccc(N3CCOCC3)c(F)c2)nn1` here?
**A.** 192 °C

**Q.** With `CCOC(=O)c1ccc(S(N)(=O)=O)cc1` as the compound, how does the melting point read?
**A.** 102 to 104 °C

**Q.** For `CCOCn1c(-c2ccc(Cl)cc2)c(S(=O)(=O)c2ccc(Cl)cc2)c(Br)c1C(F)(F)F`, which melting point is on record?
**A.** 107 to 112 °C

**Q.** Which melting point does the source give for `O=C(CCCCCCCc1ccccc1)NNC(=O)c1ccc(O)cc1` here?
**A.** 150 to 152 °C

**Q.** With `N#Cc1ccc(NC(=O)c2ccnc(SCc3ccc(F)cc3)c2)cc1` as the compound, how does the melting point read?
**A.** 160 to 162 °C

**Q.** For `CNC(=O)Nc1cccc(OC(=O)N(CCC#N)c2ccccc2)c1`, which melting point is on record?
**A.** 147 °C

**Q.** With `O=C(c1ccc(C2=CCCc3ccccc32)cc1Cl)N1Cc2cccn2Cc2ccccc21` as the compound, how does the melting point read?
**A.** 174 to 176 °C

**Q.** With `CC(C)(C)OC(=O)n1ccc2cc([N+](=O)[O-])ccc21` as the compound, how does the melting point read?
**A.** 135 to 137 °C

**Q.** With `O=C1CCC(N2C(=O)c3cccc(CNC(=O)c4cc(Cl)cnc4Cl)c3C2=O)C(=O)N1` (stereo not drawn) as the compound, how does the melting point read?
**A.** > 260 °C

**Q.** With `CN(C)CCNNc1ccc(CO)c2oc3ccc(O)cc3c(=O)c12` as the compound, how does the melting point read?
**A.** 122 to 123 °C

**Q.** Which melting point does the source give for `Cc1cc(Cl)cc(C(=O)NC(C)C)c1NC(=O)c1cc(Br)nn1-c1ncccc1Cl` here?
**A.** 159 to 161 °C

**Q.** For `CCOC(C)=C(C#N)C(=O)Nc1ccccc1C`, which melting point is on record?
**A.** 179 to 181 °C

From a melting point compilation (Tetko et al.; mined from patent text by program, amines drawn as free bases though some values may be those of a salt)
